Calls of active or inactive are those of the source.
Experiments:
[1] = viability of Vero 76 cells – cell-based, set 3, cytotoxicity control, dose response (AID 602439); format: functional; conditions: Venezuelan equine encephalitis virus
[2] = target: T1, Microphthalmia-associated transcription factor (Homo sapiens, UniProt O75030); assay: reducers of TRPM1 reporter luminescence, concentration series – cell-based, SK-MEL-5, cherry-picked, set 3, MITF inhibitor project, dose response (AID 493073); format: functional;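 note: SK-MEL-5 melanoma cells with luciferase driven by the MITF target TRPM1 promoter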
T1 sequence (O75030 whole entry): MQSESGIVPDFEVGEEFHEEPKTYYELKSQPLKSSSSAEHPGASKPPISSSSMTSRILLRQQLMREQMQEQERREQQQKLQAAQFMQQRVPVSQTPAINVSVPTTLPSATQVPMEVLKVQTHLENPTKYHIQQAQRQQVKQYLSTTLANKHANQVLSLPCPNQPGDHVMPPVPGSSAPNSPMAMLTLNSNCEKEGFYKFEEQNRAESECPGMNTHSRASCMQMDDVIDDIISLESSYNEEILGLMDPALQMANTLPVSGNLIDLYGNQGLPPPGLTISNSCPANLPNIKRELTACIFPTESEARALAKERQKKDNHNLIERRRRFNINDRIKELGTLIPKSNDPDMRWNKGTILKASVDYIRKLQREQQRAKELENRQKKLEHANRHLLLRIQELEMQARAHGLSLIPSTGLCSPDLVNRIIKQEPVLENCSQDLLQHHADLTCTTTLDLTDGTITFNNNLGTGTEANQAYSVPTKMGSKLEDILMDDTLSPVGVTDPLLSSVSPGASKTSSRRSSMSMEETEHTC

[3] = reduction of Shn3 3'UTR-driven luciferase in osteoblasts – cell-based, Clone20 osteoblasts, firefly luciferase, cherry-picked, dose response (AID 624132); format: functional;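 note: firefly luciferase luminescence from reporter carrying the Shn3 3'UTR in osteoblasts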
[4] = loss of viability in HepG2 cells – cell-based, CellTiter-Glo, cherry-picked, cytotoxicity control for Shn3 inhibitor project, dose response (AID 624134); format: functional
[5] = non-specific 3'UTR reporter inhibition in Clone20-Shn3RL – cell-based, Renilla luciferase, cherry-picked, counter-screen for Shn3 inhibitor project, dose response (AID 624133); format: functional
[6] = Shn3 3'UTR reporter signal decrease – cell-based, Clone20 osteoblasts, firefly luciferase, cherry-pick, set 2, Schnurri-3 inhibitor project, dose response (AID 720490); format: functional;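 note: actives lower the luminescence signal as inhibitors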
[7] = system: Streptococcus sp. 'group A'; assay: Streptococcus pyogenes SK(-)GAS viability under kanamycin – luminescence, BacTiterGlo, confirmation, counter-screen for streptokinase expression inhibitor project, dose response (AID 1900); format: functional, organism-based
Streptokinase A = target: T2, Streptokinase A (Streptococcus pyogenes serotype M1, UniProt P10520); assay: viability-normalized secreted streptokinase activity reduction – plasminogen activation absorbance, OD405, dose response (AID 1914); format: functional, Streptococcus pyogenes M1 GAS;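 note: secreted streptokinase activity via plasminogen activation per viability signal from cell pellet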
T2 sequence (P10520 whole entry): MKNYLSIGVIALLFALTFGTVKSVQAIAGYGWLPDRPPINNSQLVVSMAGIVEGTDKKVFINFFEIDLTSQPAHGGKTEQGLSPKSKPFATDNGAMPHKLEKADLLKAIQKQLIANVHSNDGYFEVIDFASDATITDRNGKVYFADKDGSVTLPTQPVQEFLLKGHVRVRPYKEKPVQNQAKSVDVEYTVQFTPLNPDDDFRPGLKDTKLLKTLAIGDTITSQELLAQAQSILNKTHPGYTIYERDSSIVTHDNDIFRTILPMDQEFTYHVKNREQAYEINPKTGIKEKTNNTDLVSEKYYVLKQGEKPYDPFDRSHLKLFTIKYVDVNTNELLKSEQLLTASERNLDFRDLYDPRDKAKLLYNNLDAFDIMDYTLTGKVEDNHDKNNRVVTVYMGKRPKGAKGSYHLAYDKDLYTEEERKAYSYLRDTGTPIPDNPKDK

Streptococcus = assay: GAS UMAA2166 growth inhibition – luminescence, BacTiterGlo, counter-screen for streptokinase expression inhibitor project, dose response (AID 1915); format: functional, organism-based;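 note: potency for reduction of bacterial viability or growth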
INS1 = assay: INS-1E survival protection against cytokine death – cell-based, luminescence, retest, dose response (AID 449756); format: functional; conditions: Rattus norvegicus;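 note: cell death triggered by IL-1 beta plus TNF-alpha plus IFN-gamma mixture; protective hits raise ATP signal compared with cytokine alone wells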
[8] = viability loss in HepG2 hepatoma cells – cell-based, ATP luminescence, cherry-pick, activator set 2, cytotoxicity control, dose response (AID 1053143); format: functional
Caspase-3 = target: T3, Caspase-3 (Homo sapiens, UniProt P42574); format: functional;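 note: Dose-response selectivity test against caspase-3 for candidate inhibitors of sentrin-specific proteases (SENPs)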
T3 sequence (P42574 whole entry): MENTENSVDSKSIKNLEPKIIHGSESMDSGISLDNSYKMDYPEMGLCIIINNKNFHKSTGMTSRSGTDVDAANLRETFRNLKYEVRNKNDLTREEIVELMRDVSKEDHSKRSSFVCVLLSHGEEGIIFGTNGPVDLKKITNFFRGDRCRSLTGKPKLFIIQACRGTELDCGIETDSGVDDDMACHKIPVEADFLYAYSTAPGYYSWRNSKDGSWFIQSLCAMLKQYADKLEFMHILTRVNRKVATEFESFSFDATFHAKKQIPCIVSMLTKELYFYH

[9] = target: T4, Sentrin-specific protease 7 (Homo sapiens, UniProt Q9BQF6); format: functional;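 note: Luminescence-based dose-response confirmation of ultra-high-throughput screening hits, measuring inhibition of SENP7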
T4 sequence (Q9BQF6 whole entry): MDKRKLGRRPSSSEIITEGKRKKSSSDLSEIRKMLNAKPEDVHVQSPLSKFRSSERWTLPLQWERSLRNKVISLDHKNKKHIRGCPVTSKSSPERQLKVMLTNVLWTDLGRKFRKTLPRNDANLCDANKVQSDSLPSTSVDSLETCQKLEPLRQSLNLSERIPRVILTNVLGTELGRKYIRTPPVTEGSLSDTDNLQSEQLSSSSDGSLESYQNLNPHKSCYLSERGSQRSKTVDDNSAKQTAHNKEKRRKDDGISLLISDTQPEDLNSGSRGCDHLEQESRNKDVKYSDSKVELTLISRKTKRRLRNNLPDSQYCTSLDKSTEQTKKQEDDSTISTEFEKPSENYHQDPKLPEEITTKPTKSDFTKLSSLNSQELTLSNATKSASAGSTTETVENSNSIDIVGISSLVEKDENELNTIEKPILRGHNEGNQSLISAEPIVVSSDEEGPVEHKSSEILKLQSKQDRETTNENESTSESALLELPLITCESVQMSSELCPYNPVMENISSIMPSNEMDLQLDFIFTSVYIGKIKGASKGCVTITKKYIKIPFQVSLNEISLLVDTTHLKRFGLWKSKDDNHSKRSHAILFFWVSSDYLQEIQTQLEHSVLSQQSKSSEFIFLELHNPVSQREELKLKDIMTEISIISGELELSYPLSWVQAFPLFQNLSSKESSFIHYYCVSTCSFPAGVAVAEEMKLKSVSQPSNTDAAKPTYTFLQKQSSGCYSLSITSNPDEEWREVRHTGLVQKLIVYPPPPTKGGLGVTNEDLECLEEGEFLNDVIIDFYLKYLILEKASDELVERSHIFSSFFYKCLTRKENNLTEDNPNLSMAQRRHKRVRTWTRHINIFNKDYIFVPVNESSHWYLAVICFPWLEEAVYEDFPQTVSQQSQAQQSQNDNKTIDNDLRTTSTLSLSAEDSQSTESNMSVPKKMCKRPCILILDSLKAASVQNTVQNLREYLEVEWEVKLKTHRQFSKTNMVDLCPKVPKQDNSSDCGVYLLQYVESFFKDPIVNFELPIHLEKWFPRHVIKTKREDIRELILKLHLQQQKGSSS

[10] = target: T5, Sentrin-specific protease 6 (Homo sapiens, UniProt Q9GZR1); format: functional;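 note: Luminescence-based dose-response confirmatory assay of SENP6 inhibition, following up an ultra-high-throughput screen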
T5 sequence (Q9GZR1 whole entry): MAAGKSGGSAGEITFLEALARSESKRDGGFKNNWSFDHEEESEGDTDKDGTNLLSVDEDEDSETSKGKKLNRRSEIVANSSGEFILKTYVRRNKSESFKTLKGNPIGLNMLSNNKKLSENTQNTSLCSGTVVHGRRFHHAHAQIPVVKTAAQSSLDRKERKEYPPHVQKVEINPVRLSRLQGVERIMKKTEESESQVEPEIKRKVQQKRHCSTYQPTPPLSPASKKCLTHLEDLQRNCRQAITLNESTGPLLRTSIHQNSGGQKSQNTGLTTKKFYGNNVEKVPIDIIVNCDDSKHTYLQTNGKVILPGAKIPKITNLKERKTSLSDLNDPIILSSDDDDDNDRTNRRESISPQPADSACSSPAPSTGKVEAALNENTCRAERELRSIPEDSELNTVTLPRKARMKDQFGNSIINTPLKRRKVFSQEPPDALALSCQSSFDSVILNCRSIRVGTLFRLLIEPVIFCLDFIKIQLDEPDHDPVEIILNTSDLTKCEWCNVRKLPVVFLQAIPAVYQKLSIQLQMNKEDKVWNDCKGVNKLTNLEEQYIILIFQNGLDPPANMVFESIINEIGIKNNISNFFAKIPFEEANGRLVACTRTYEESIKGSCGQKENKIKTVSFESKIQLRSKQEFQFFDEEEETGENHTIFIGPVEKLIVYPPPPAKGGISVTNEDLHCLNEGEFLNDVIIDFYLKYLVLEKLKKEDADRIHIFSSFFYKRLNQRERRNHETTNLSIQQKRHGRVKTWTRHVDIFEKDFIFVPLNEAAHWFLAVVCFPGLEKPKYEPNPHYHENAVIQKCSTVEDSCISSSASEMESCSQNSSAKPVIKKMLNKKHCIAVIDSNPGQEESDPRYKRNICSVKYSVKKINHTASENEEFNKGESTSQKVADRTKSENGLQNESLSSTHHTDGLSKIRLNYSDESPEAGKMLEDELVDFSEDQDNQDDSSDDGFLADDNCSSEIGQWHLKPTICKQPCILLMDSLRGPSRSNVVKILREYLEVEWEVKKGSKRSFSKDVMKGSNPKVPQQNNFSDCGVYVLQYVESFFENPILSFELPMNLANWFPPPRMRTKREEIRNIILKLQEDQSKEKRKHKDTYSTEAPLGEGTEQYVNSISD

[11] = target: T6, Sentrin-specific protease 8 (Homo sapiens, UniProt Q96LD8); format: functional;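 note: luminescence read-out of SENP8 inhibition, dose-response confirmation following an ultra-high-throughput screen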
T6 sequence (Q96LD8 whole entry): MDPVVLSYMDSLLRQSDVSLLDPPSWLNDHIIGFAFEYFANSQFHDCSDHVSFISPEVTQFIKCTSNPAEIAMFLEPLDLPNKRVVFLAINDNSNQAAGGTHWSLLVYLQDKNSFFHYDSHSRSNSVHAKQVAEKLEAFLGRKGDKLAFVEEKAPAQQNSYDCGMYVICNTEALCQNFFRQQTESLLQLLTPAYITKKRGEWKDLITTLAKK

[12] = target: Dual specificity tyrosine-phosphorylation-regulated kinase 1A (Rattus norvegicus, UniProt Q63470); format: biochemical, Homo sapiens
Caspase-6 = Caspase-6 (Homo sapiens, UniProt P55212); assay: inhibition of CASP6 peptide cleavage – biochemical, VEID-R110 fluorescence, cherry-pick, dose response (AID 720632)
Sequence of Caspase-6 (P55212 24-179 limits assumed): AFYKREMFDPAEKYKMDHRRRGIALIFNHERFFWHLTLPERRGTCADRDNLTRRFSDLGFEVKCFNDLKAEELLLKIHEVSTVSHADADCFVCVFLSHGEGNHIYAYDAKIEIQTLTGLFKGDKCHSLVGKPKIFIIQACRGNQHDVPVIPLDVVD
Sequence of Caspase-6 (P55212 194-293 limits assumed): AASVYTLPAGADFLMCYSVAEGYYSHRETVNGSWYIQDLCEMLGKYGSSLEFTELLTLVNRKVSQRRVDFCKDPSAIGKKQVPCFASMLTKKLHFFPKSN

Kallikrein-7 = Kallikrein-7 (Homo sapiens, UniProt P49862); assay: Fluorescence Intensity-based biochemical primary high throughput dose response assay to identify activators of kallikrein-7 (K7) zymogen.
Sequence of Kallikrein-7 (P49862 whole entry, the tested form may be a part): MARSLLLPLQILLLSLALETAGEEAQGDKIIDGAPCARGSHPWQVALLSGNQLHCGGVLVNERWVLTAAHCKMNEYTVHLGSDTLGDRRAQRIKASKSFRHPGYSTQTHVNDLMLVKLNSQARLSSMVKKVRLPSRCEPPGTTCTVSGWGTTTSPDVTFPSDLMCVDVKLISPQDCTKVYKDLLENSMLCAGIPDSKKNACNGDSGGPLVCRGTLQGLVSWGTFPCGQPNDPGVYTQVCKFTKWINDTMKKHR

[13] = target: Disintegrin and metalloproteinase domain-containing protein 17 (Homo sapiens, UniProt P78536); assay: exosite inhibitors of ADAM17, dose response, biochemical (AID 743260)
Sequence of Disintegrin and metalloproteinase domain-containing protein 17 (P78536 whole entry, the tested form may be a part): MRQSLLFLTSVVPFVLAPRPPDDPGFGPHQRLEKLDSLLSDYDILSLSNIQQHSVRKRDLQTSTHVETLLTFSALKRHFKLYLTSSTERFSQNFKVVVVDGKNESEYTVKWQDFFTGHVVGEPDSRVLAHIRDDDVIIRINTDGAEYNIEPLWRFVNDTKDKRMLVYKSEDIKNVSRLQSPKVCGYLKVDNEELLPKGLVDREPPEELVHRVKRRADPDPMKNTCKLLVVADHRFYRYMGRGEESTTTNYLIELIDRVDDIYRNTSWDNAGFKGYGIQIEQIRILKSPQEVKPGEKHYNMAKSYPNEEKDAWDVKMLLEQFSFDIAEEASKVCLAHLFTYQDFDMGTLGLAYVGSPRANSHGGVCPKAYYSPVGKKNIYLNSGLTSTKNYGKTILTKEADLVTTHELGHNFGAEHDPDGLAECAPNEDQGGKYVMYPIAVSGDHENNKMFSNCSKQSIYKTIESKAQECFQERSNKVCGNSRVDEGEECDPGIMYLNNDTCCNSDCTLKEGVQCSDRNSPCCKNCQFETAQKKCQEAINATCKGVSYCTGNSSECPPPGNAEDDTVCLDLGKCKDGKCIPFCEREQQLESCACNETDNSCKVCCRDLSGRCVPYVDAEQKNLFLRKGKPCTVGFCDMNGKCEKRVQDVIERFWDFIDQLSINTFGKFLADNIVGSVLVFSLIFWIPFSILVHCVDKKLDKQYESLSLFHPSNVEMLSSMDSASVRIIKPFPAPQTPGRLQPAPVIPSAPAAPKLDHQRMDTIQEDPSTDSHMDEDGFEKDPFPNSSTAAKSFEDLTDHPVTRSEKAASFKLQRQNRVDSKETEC

[14] = inhibition of ADAM10 peptide cleavage – biochemical, FRET peptide substrate, recombinant human ADAM10, selectivity assay for ADAM17 exosite inhibitor project, dose response (AID 743259);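 note: ADAM10 enzyme cleaving a FRET peptide substrate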
HeLa = assay: viability loss in HeLa cells – cell-based, ATP luminescence, cherry-pick samples, cytotoxicity control, dose response (AID 687004); format: functional; conditions: Homo sapiens
HEK293 = assay: viability loss in HEK293T cells – cell-based, ATP luminescence, cherry-pick samples, cytotoxicity control, dose response (AID 687005); format: functional; conditions: Homo sapiens;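 note: cells exposed to compound for 48 hours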
[15] = HEK293 Cytotoxicity Assay Measured in Cell-Based System Using Plate Reader - 7071-01_Inhibitor_Dose_CherryPick_Activity_Set2.; format: functional
[16] = Late stage assay provider results from the probe development effort to identify selective inhibitors of heat shock protein 90 (HSP90): Absorbance-based cell proliferation assay in SKBR3 cells.; format: functional; conditions: SK-BR-3
[17] = Late stage assay provider results from the probe development effort to identify selective inhibitors of heat shock protein 90 (HSP90): Absorbance-based cell proliferation assay in MCF7 cells.; format: functional
[18] = target: Protein disulfide-isomerase (Homo sapiens, UniProt P07237); assay: inhibition of PDI-mediated insulin reduction – biochemical, turbidity, dry powder samples, set 2, confirmation (AID 652146)
Sequence of Protein disulfide-isomerase (P07237 whole entry): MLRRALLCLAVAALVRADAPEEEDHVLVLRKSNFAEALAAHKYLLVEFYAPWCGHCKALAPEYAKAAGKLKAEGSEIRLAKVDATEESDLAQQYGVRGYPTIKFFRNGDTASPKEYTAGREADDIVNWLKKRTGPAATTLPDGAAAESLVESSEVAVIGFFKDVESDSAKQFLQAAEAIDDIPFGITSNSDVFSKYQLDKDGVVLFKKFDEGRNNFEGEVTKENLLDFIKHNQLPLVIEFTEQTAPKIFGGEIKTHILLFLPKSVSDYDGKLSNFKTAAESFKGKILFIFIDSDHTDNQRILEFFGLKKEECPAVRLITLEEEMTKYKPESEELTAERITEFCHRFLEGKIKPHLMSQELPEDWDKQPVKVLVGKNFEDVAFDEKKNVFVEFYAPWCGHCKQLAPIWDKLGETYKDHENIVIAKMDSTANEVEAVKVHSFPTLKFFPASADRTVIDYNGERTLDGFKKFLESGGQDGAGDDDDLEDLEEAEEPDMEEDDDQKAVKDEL

[19] = viability loss in MITF-independent A375 cells – cell-based, CellTiter-Glo luminescence, dry powder, set 2, counter-screen for MITF inhibitor project, dose response (AID 624489); format: functional; conditions: A-375;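 note: actives are compounds lowering A375 viability meaning general cytotoxicity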
[20] = melanocyte viability loss, MITF-dependent cells, cell-based, plate reader, dry powder, cytotoxicity control, dose response (AID 651920); format: functional

## O=C(Nc1nc2c(s1)CCCC2)c1cccs1
[1]
  CC50: > 50 µM (active)

## COc1ccccc1NS(=O)(=O)c1cc(NC(=O)c2ccc(Cl)nc2)ccc1Cl
[2]
  AC50: 11.3 µM (active)
[3]
  AC50: 3.12 µM (active)
[4]
  AC50: 56.2 µM (active)
[5]
  AC50: 21 µM (active)
[6]
  AC50: 3.71 µM (active)

## CCOC(=O)c1sc(NC(=O)Nc2cccc(Cl)c2)cc1C
[7]
  EC50: 4.86 µM (active)
Streptokinase A
  EC50: 11.2 µM (active)
Streptococcus
  EC50: 4.1 µM (active)
INS1
  AC50: 4.57 µM (active)
[8]
  AC50: 14.7 µM (active)

## COc1cc2c(C#N)c(N3CCCC3)nc(N)c2c(N)n1
Caspase-3
  IC50: 7.35 µM (active)
[9]
  IC50: 2.67 µM (active)
[10]
  IC50: 2.24 µM (active)
[11]
  IC50: 2.64 µM (active)
[12]
  AC50: 5.72 µM (active)
Caspase-6
  AC50: 12 µM (active)

## COc1cc2c(cc1OC)C1CCN3C(=O)CCC3N1CC2 (stereo not drawn)
Kallikrein-7
  EC50: 21.1 µM (inactive)

## Cc1ccc(CC2(c3ccccc3)NC(=O)NC2=O)cc1 (stereo not drawn)
[13]
  IC50: 18.6 µM (inactive)
[14]
  IC50: > 69.4 µM (inactive)

## CCCC#Cc1ccc2c(c1)O[C@H](CN(C)CCC)[C@H](C)CN([C@@H](C)CO)S2(=O)=O
HeLa
  AC50: 42.6 µM (active)
HEK293
  AC50: 14.6 µM (active)
[15]
  AC50: 14.6 µM (active)

## COc1ccccc1/N=N/c1c(O)[nH]c(=O)c(C#N)c1C
[16]
  IC50: > 100 µM (inactive)
[17]
  IC50: > 100 µM (inactive)

## C=CCOc1ccc(CN2CCC(CCOc3ccccc3)(C(=O)N3CCCC3)CC2)cc1Cl
[18]
  AC50: > 30 µM (inactive)

## O=C(NC1=C(N2CCN(c3ccccc3)CC2)C(=O)c2ccccc2C1=O)c1ccccc1
[19]
  AC50: > 70 µM (inactive)
[20]
  AC50: > 70 µM (inactive)

From ChEMBL document CHEMBL1201862, “PubChem BioAssay data set” (2004)
